From publication PMC10997755, “Discovery of a small-molecule inhibitor that traps Polθ on DNA and synergizes with PARP inhibitors” (Nature Communications, 2024)
Where “and” joins values, the source holds several entries; their conditions need not be identical. Equal entries are not always repeated.

What was measured:
[1] = biological target: T1, Polθ-pol (Homo sapiens, UniProt O75417); assay: Relative rate of Polθ-pol dAMP addition; format: biochemical
T1 construct: purified recombinant human Polθ-pol (comprising amino acid residues 1792–2590); made in house
T1 sequence (O75417 1792-2590): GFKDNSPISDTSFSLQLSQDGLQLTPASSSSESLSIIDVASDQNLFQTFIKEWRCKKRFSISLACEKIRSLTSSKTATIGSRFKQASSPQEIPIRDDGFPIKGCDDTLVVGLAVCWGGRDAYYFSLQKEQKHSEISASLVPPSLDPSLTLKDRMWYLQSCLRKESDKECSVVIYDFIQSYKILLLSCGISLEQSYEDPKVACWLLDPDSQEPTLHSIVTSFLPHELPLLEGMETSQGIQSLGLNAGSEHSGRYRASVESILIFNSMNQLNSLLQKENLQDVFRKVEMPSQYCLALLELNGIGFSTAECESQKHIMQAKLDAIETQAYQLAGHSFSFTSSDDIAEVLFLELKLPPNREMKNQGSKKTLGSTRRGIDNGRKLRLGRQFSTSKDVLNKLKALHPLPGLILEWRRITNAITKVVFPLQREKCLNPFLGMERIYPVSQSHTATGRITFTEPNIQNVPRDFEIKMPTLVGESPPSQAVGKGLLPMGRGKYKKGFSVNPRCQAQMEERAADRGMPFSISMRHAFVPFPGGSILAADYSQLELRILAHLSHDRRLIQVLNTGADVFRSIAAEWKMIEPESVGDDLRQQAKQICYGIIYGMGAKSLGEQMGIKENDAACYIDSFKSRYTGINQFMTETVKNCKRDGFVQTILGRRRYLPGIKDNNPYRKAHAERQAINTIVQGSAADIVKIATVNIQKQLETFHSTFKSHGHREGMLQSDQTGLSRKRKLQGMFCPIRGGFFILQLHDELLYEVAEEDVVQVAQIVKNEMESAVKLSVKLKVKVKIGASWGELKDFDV
Method: Relative rate of Polθ-pol dAMP addition. The relative rates of dAMP incorporation by Polq-pol in the presence of DMSO or MC160385 with various concentrations of dATP were measured using the following primer extension assay in vitro. 2 nM or Polθ-pol was incubated with 5’ ^32P-γ-ATP labeled 100 nM primer-template (RP469D/RP486) in 1X buffer (25 mM TrisHCl pH 7.8, 0.01% NP40, 10% glycerol, 1 mM DTT, 10 mM MgCl2, 0.1 mg/ml BSA) at room temp. 2.5% DMSO, 7.5 nM or 12 nM of MC160385 was added. Reactions were than initiated by the addition of 20, 50, 100, 200, or 300 μM dATP at room temp. Aliquots of the reactions were removed and terminated by the addition of 50 mM EDTA at 3, 3.5, 4 and 5 min after the reaction was initiated. Radio-labeled DNA was then resolved via denaturing 20% PAGE and visualized by Typhoon PhosphorImager (GE Amersham). Rates of dAMP incorporation were calculated from % extension of the prime-template which was determined using ImageJ software. Relative rate of ddCMP addition on DNA/DNA and DNA/RNA. 25 nM nucleic acid DNA/DNA or DNA/RNA primer-template (RP559/RP702 or RP559/RP702R) was mixed with 1X reaction buffer (20 mM TrisHCl pH 7.5, 0.01% NP-40, 0.5 mM DTT, 10% glycerol, 0.1 mg/ml BSA, 10 mM MgCl2) in the presence of 250 μM ddCTP at room temp. Next, 2 μM RTx-161 or 2.5% DMSO was added. Reactions were initiated by the addition of 10 nM Polθ-pol. Reaction aliquots were removed and terminated by the addition of 50 mM EDTA at the indicated time points. Radio-labeled DNA was then resolved via denaturing 20% PAGE and visualized by Typhoon PhosphorImager. Percent primer extension by single ddCMP addition at each time point was calculated from % extension of the prime-template which was determined using ImageJ software.

[2] = tested on: BRCA2-WT cells; assay: Clonogenic assay (number of colonies counted); format: cell-based; settings: three replicates
[3] = tested on: PE01 ovarian cancer cells; assay: Clonogenic assay; format: cell-based; settings: clonogenic survival
Summary of the method: (§1)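 Cells seeded at low density (300–1000 per well, by plate size and genotype), medium changed every 2 days, colonies grown 10–12 days. Fixed in water:ethanol:acetic acid, stained with 0.5% crystal violet, then counted; IC50 from ≥3 independent experiments, mean ± SEM.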

[4] = tested on: HCT116 BRCA2 -/- cells; assay: Clonogenic assay; format: cell-based; settings: for Average number of colonies counted / Normalized colonies (% normalized to control): per experiment
Summary of the method: as §1

## CN(C(=O)Oc1ccc(C(F)(F)F)cc1C(F)(F)F)c1ccc(F)cc1 [MC160385]
[1]
  effect on Km for dATP: slightly reducing
  effect on Vmax of dAMP incorporation: significantly reduces
[1]; 7.5 nM MC160385, dATP 20 uM
  relative velocity of dAMP incorporation (avg): 2.69 and 2.7
[1]; 7.5 nM MC160385, dATP 50 uM
  relative velocity of dAMP incorporation (avg): 5.36 and 5.4
[1]; 7.5 nM MC160385, dATP 100 uM
  relative velocity of dAMP incorporation (avg): 6.32 and 6.3
[1]; 7.5 nM MC160385, dATP 200 uM
  relative velocity of dAMP incorporation (avg): 6.56 and 6.6
[1]; 7.5 nM MC160385, dATP 300 uM
  relative velocity of dAMP incorporation (avg): 6.245 and 6.2
[1]; 12 nM, dATP 20 uM
  relative velocity of dAMP incorporation (avg): 2.3
[1]; 12 nM, dATP 50 uM
  relative velocity of dAMP incorporation (avg): 4.065
[1]; 12 nM, dATP 50 uM, listed as MC160386
  relative velocity of dAMP incorporation (avg): 4.1
[1]; 12 nM, dATP 100 uM
  relative velocity of dAMP incorporation (avg): 4.94
[1]; 12 nM, dATP 100 uM, listed as MC160386
  relative velocity of dAMP incorporation (avg): 4.9
[1]; 12 nM, dATP 200 uM
  relative velocity of dAMP incorporation (avg): 4.6
[1]; 12 nM, dATP 300 uM
  relative velocity of dAMP incorporation (avg): 4.95
[2]; MC160385 2.5 μM
  number of olonies counted: 84 and 87 and 85
[2]; MC160385 5 μM
  number of olonies counted: 82 and 86 and 83
[2]; MC160385 10 μM
  number of olonies counted: 80 and 84 and 82
[2]; MC160385 20 μM
  number of olonies counted: 79 and 84 and 80

## CN(C(=O)Oc1c(N2CCN(CCO)C2=O)cc(C(F)(F)F)cc1C(F)(F)F)c1ccc(F)cc1 [RTx-161]
[3]
  combination with Olaparib: strongly potentiated the effects of Olaparib
  single agent activity: little to no activity as a single agent
[4]; Homo sapiens, HCT-116, HCT116 cells, label beside BRCA2-null curve, read-out: IC50 clonogenic survival
  IC50: ~1000 nM
[4]; RTX-161 0.5 micro M
  Normalized colonies, pooled Average of 3 experiments: 92.0788%
  Average number of colonies counted: 70 and 37.3333 and 38
  Normalized colonies (% normalized to control): 74.7331% and 113.131% and 88.3721%
[4]; RTX-161 1 micro M
  Normalized colonies, pooled Average of 3 experiments: 62.4064%
  Average number of colonies counted: 46.6667 and 26.6667 and 24.3333
  Normalized colonies (% normalized to control): 49.8221% and 80.8081% and 56.5891%
[4]; RTX-161 2 micro M
  Normalized colonies, pooled Average of 3 experiments: 32.1189%
  Normalized colonies (% normalized to control): 33.0961% and 35.3535% and 27.907%
[4]; RTX-161 4 micro M
  Normalized colonies, pooled Average of 3 experiments: 16.8132%
[4]; RTX-161 8 micro M
  Normalized colonies, pooled Average of 3 experiments: 8.53%
[4]; clonogenic survival
  combination with Rucaparib: strong synergistic activity
[4]; clonogenic survival, Combenefit synergy
  combination with Olaparib: strong synergistic activity
[4]; colony survival, versus BRCA2-WT
  selective killing of BRCA2-null HCT116 cells: selective killing
